In PubChem BioAssay (NCI):
Several values for one entry are separate records, joined by “and”; a condition that tells them apart may be missing. Equal entries are not always repeated.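 All cell lines were grown in 96-well plates and treated with compound for 48 hours. GI50: concentration for 50% inhibition of growth. TGI is the concentration that stops growth completely.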

Tests used:
Assay in all cases: NCI tumour cell line growth inhibition, 48 h
DMS 114 small cell lung = tested on: DMS 114 small cell lung
SR leukemia = tested on: SR leukemia
P388 leukemia = tested on: P388 leukemia
TK-10 renal = tested on: TK-10 renal
HS 578T breast = tested on: HS 578T breast
HOP-18 NSCLC = tested on: HOP-18 NSCLC
ACHN renal = tested on: ACHN renal
NCI-H460 lung = tested on: NCI-H460 lung
RXF 393 renal = tested on: RXF 393 renal
MDA-N = tested on: MDA-N
UO-31 renal = tested on: UO-31 renal
HCC-2998 colon = tested on: HCC-2998 colon
NCI/ADR-RES ovarian = tested on: NCI/ADR-RES ovarian
PC-3 prostate = tested on: PC-3 prostate
DLD-1 colon = tested on: DLD-1 colon
M19-MEL melanoma = tested on: M19-MEL melanoma
HL-60(TB) leukemia = tested on: HL-60(TB) leukemia
DU-145 prostate = tested on: DU-145 prostate
M14 melanoma = tested on: M14 melanoma
T-47D breast = tested on: T-47D breast
HCT-15 colon = tested on: HCT-15 colon
SNB-78 CNS = tested on: SNB-78 CNS
P388/ADR leukemia = tested on: P388/ADR leukemia
BT-549 breast = tested on: BT-549 breast
KM12 colon = tested on: KM12 colon
OVCAR-4 ovarian = tested on: OVCAR-4 ovarian
SN12K1 renal = tested on: SN12K1 renal
MDA-MB-435 = tested on: MDA-MB-435
MDA-MB-231 breast = tested on: MDA-MB-231 breast
XF 498 CNS = tested on: XF 498 CNS
NCI-H522 lung = tested on: NCI-H522 lung
786-0 renal = tested on: 786-0 renal
HOP-92 NSCLC = tested on: HOP-92 NSCLC
KM20L2 colon = tested on: KM20L2 colon
DMS 273 small cell lung = tested on: DMS 273 small cell lung
SF-539 CNS = tested on: SF-539 CNS
EKVX NSCLC = tested on: EKVX NSCLC
OVCAR-8 ovarian = tested on: OVCAR-8 ovarian
NCI-H23 lung = tested on: NCI-H23 lung
COLO 205 colon = tested on: COLO 205 colon
OVCAR-3 ovarian = tested on: OVCAR-3 ovarian
SF-295 CNS = tested on: SF-295 CNS
LXFL 529 NSCLC = tested on: LXFL 529 NSCLC
SNB-19 CNS = tested on: SNB-19 CNS
RXF-631 renal = tested on: RXF-631 renal
UACC-62 melanoma = tested on: UACC-62 melanoma
CCRF-CEM leukemia = tested on: CCRF-CEM leukemia
IGROV1 ovarian = tested on: IGROV1 ovarian
K-562 leukemia = tested on: K-562 leukemia
U251 CNS = tested on: U251 CNS
SNB-75 CNS = tested on: SNB-75 CNS
MALME-3M melanoma = tested on: MALME-3M melanoma
RPMI-8226 leukemia = tested on: RPMI-8226 leukemia
MOLT-4 leukemia = tested on: MOLT-4 leukemia
SK-MEL-5 melanoma = tested on: SK-MEL-5 melanoma
UACC-257 melanoma = tested on: UACC-257 melanoma
A498 renal = tested on: A498 renal
SW-620 colon = tested on: SW-620 colon
OVCAR-5 ovarian = tested on: OVCAR-5 ovarian
HT29 colon = tested on: HT29 colon
NCI-H226 lung = tested on: NCI-H226 lung
SF-268 CNS = tested on: SF-268 CNS
HOP-62 NSCLC = tested on: HOP-62 NSCLC
SK-OV-3 ovarian = tested on: SK-OV-3 ovarian
CAKI-1 renal = tested on: CAKI-1 renal
A549 NSCLC = tested on: A549 NSCLC
HCT-116 colon = tested on: HCT-116 colon
SN12C renal = tested on: SN12C renal
SK-MEL-28 melanoma = tested on: SK-MEL-28 melanoma

Q: Which results are given for CCCCCC(O)C1C(=O)OC(C)C(O)/C=C/C=C/C=C/C=C/C=C(\C)C(O)C(O)C(O)CC(O)CC(O)CC(O)CC(O)CC1O (configuration not stated)?
A: TGI (DMS 114 small cell lung): 2.92 µM; TGI (SR leukemia): > 100 µM; TGI (P388 leukemia): 2.42 µM; TGI (TK-10 renal): > 100 µM; TGI (HS 578T breast): > 100 µM; TGI (HOP-18 NSCLC): 4.61 µM; TGI (ACHN renal): > 100 µM; TGI (NCI-H460 lung): 3.44 µM; TGI (RXF 393 renal): 1.89 µM; TGI (MDA-N): > 100 µM; TGI (UO-31 renal): 3.27 µM; TGI (HCC-2998 colon): 3.26 µM; TGI (NCI/ADR-RES ovarian): 3.73 µM; TGI (PC-3 prostate): > 100 µM; TGI (DLD-1 colon): 3.32 µM; TGI (M19-MEL melanoma): 2.59 µM; TGI (HL-60(TB) leukemia): > 100 µM; TGI (DU-145 prostate): > 100 µM; TGI (M14 melanoma): > 100 µM; TGI (T-47D breast): > 100 µM; TGI (HCT-15 colon): 5.93 µM; TGI (SNB-78 CNS): 4.69 µM; TGI (P388/ADR leukemia): 3.8 µM; TGI (BT-549 breast): > 100 µM; GI50 (KM12 colon): 11.8 µM and 1.77 µM; TGI (OVCAR-4 ovarian): 3.25 µM; TGI (SN12K1 renal): 2.97 µM; TGI (MDA-MB-435): > 100 µM; TGI (MDA-MB-231 breast): > 100 µM; TGI (XF 498 CNS): 2.84 µM; TGI (NCI-H522 lung): 3.3 µM; TGI (786-0 renal): > 100 µM; TGI (HOP-92 NSCLC): 3.21 µM; TGI (KM20L2 colon): 5.64 µM; TGI (DMS 273 small cell lung): 2.84 µM

Q: With O=C(NO)c1ccc(O)c(O)c1 as the compound, how does the TGI (SF-539 CNS) read?
A: > 100 µM

Q: What about the TGI (DMS 114 small cell lung) of the same compound?
A: > 100 µM

Q: And the TGI (EKVX NSCLC)?
A: > 100 µM

Q: What about the TGI (OVCAR-8 ovarian) of the same compound?
A: > 100 µM

Q: And the TGI (SR leukemia)?
A: > 100 µM

Q: What about the TGI (TK-10 renal) of the same compound?
A: > 100 µM

Q: And the TGI (NCI-H23 lung)?
A: > 100 µM

Q: And the TGI (COLO 205 colon)?
A: > 100 µM

Q: What about the TGI (OVCAR-3 ovarian) of the same compound?
A: > 100 µM

Q: What about the TGI (SF-295 CNS) of the same compound?
A: > 100 µM

Q: And the TGI (LXFL 529 NSCLC)?
A: > 100 µM

Q: And the TGI (SNB-19 CNS)?
A: > 100 µM

Q: And the TGI (RXF-631 renal)?
A: > 100 µM

Q: What about the TGI (UACC-62 melanoma) of the same compound?
A: > 100 µM

Q: What about the TGI (HOP-18 NSCLC) of the same compound?
A: > 100 µM

Q: And the TGI (CCRF-CEM leukemia)?
A: > 100 µM

Q: And the TGI (IGROV1 ovarian)?
A: > 100 µM

Q: And the TGI (ACHN renal)?
A: > 100 µM

Q: And the TGI (NCI-H460 lung)?
A: > 100 µM

Q: What about the TGI (K-562 leukemia) of the same compound?
A: 93.8 µM

Q: What about the TGI (RXF 393 renal) of the same compound?
A: > 100 µM

Q: What about the TGI (UO-31 renal) of the same compound?
A: > 100 µM

Q: What about the TGI (U251 CNS) of the same compound?
A: > 100 µM

Q: What about the TGI (HCC-2998 colon) of the same compound?
A: > 100 µM

Q: And the TGI (DLD-1 colon)?
A: > 100 µM

Q: What about the TGI (M19-MEL melanoma) of the same compound?
A: > 100 µM

Q: And the TGI (HL-60(TB) leukemia)?
A: 56 µM

Q: And the TGI (SNB-75 CNS)?
A: > 100 µM

Q: What about the TGI (M14 melanoma) of the same compound?
A: > 100 µM

Q: What about the TGI (MALME-3M melanoma) of the same compound?
A: > 100 µM

Q: What about the TGI (RPMI-8226 leukemia) of the same compound?
A: > 100 µM

Q: And the TGI (MOLT-4 leukemia)?
A: > 100 µM

Q: And the TGI (SK-MEL-5 melanoma)?
A: > 100 µM

Q: And the TGI (UACC-257 melanoma)?
A: > 100 µM

Q: And the TGI (HCT-15 colon)?
A: > 100 µM

Q: What about the TGI (SNB-78 CNS) of the same compound?
A: > 100 µM

Q: And the TGI (A498 renal)?
A: > 100 µM

Q: And the TGI (SW-620 colon)?
A: > 100 µM

Q: And the TGI (OVCAR-5 ovarian)?
A: > 100 µM

Q: What about the TGI (HT29 colon) of the same compound?
A: > 100 µM

Q: What about the TGI (NCI-H226 lung) of the same compound?
A: > 100 µM

Q: What about the TGI (KM12 colon) of the same compound?
A: > 100 µM

Q: What about the TGI (OVCAR-4 ovarian) of the same compound?
A: > 100 µM

Q: And the TGI (SF-268 CNS)?
A: > 100 µM

Q: And the TGI (HOP-62 NSCLC)?
A: > 100 µM

Q: And the TGI (SK-OV-3 ovarian)?
A: > 100 µM

Q: And the TGI (XF 498 CNS)?
A: > 100 µM

Q: What about the TGI (CAKI-1 renal) of the same compound?
A: > 100 µM

Q: And the TGI (NCI-H522 lung)?
A: > 100 µM

Q: And the TGI (A549 NSCLC)?
A: > 100 µM

Q: What about the TGI (786-0 renal) of the same compound?
A: > 100 µM

Q: And the TGI (HCT-116 colon)?
A: > 100 µM

Q: What about the TGI (HOP-92 NSCLC) of the same compound?
A: > 100 µM

Q: And the TGI (SN12C renal)?
A: > 100 µM

Q: And the TGI (SK-MEL-28 melanoma)?
A: > 100 µM

Q: What about the TGI (KM20L2 colon) of the same compound?
A: > 100 µM

Q: What about the TGI (DMS 273 small cell lung) of the same compound?
A: 77.8 µM
